Measured values: PubChem BioAssay (NCI)
“And” between values parts separate entries of the source, which are not always exact repeats. Equal values may be shown once.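 Exposure lasted 48 hours, with cells grown in 96-well plates and compounds tested at five concentrations. Here, GI50 denotes the concentration required for 50% inhibition of growth. The concentration for full growth arrest is given as TGI.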

Assays:
Assay in all cases: inhibition of tumour cell growth, NCI panel, 48 h
[1] = test system: HCT-15 colon
[2] = test system: SK-MEL-5 melanoma
[3] = test system: UACC-257 melanoma
[4] = test system: K-562 leukemia
[5] = test system: MCF7 breast
[6] = test system: SK-MEL-28 melanoma
[7] = test system: DU-145 prostate
[8] = test system: HT29 colon

Row | SMILES | GI50 [1] | TGI [1] | GI50 [2] | TGI [2] | GI50 [3] | TGI [3] | GI50 [4] | TGI [4] | GI50 [5] | TGI [5] | GI50 [6] | TGI [6] | GI50 [7] | TGI [7] | GI50 [8] | TGI [8]
1 | CC/C=C\C[C@H](O)C/C=C1/C(=O)C=C[C@@H]1C/C=C\CCCC(=O)OCCS(=O)(=O)c1ccccc1 | 2.84 µM | 11.4 µM | 1.99 µM | 4.06 µM | 4.54 µM | 17.3 µM | 3.04 µM | 63.8 µM | 2.39 µM | 18.6 µM | 2.72 µM | 8.02 µM | 5.24 µM | 17.8 µM | 3.29 µM | 8.54 µM
2 | COc1ccc(C(=O)OC2C(OC3C(O)COC(O[C@H]4C[C@H]5[C@@H]6CC=C7C[C@@H](O)CC[C@]7(C)[C@H]6CC[C@]5(C)[C@H]4[C@H](C)C(=O)CCC(C)C)C3OC(=O)C(C)C)OCC(O)C2O)cc1 (stereo partly specified) | 0.218 µM | 3.92 µM | 0.019 µM | 0.36 µM | 0.0342 µM | 0.114 µM | 0.0127 µM | 0.516 µM | 0.0136 µM | 2.99 µM | 0.011 µM | 0.0612 µM | 0.017 µM | 4.65 µM | 0.0507 µM | 4.85 µM
3 | O=S1(=O)OCc2ccccc21 | – | > 100 µM | – | > 100 µM | – | > 100 µM | – | > 100 µM | – | > 100 µM | – | > 100 µM | – | > 100 µM | – | > 100 µM
4 | OCCNC(=S)Nc1ccc(-c2nc(N3C[C@H]4CC[C@@H](C3)O4)c3cccn3n2)cc1 | 0.0906 µM | 14.4 µM | 0.0668 µM | 0.642 µM | 0.0354 µM | 0.467 µM | 0.266 µM | > 37.6 µM | 0.0231 µM | 11.4 µM | 0.028 µM | 0.499 µM | 0.0987 µM | 24.2 µM | 0.117 µM | 22.5 µM
5 | CC(C)C[C@H](NC(=O)[C@H](Cc1ccccc1)NC(=O)c1cnccn1)B(O)O | 0.00237 µM | – | < 0.01 µM and 0.0014 µM | 0.014 µM and 0.00411 µM | 0.00107 µM | 0.00349 µM | 0.00398 µM | > 100 µM | 0.0013 µM | – | 0.00104 µM | – | 0.00311 µM | – | 0.00166 µM | –
6 | O=C1/C(=N/N=C(c2ccccc2)c2ccccc2)c2ccccc2-c2ccccc21 | – | > 100 µM | – | > 100 µM | – | > 100 µM | – | > 100 µM | – | > 100 µM | – | > 100 µM | – | > 100 µM | – | > 100 µM
7 | COc1ccc(/C=C(/C(=O)N2CCN(c3ccc(C)cc3)CC2)c2cc(OC)c(OC)c(OC)c2)cc1N | 0.337 µM | > 100 µM | 0.228 µM | 0.661 µM | > 87.3 µM | > 100 µM | 0.222 µM | > 100 µM | 0.228 µM | > 100 µM | 0.54 µM | > 100 µM | 0.307 µM | > 76.3 µM | 0.339 µM | > 39.2 µM
8 | CCC1CCC2C3CC=C4CC(OC(C)=O)C(N)CC4(C)C3CCC12C (stereo unspecified) | – | 12.5 µM | – | 3.7 µM | – | 4.55 µM | – | 4.91 µM | – | 14 µM | – | 10.4 µM | – | 8.33 µM | – | 6.32 µM
9 | C[C@@]1([C@H](OC(=O)c2cccc3ccccc23)C(N)=O)CO1 | 1.72 µM | 10.7 µM | 2.01 µM | 5.75 µM | 4.65 µM | > 49 µM | 1.13 µM | > 37.5 µM | 1.24 µM | > 100 µM | 3.08 µM | 15.2 µM | 1.61 µM | 5.64 µM | 1.05 µM | > 24 µM
10 | S=P(C1CCCCC1)(C1CCCCC1)C(c1cccnc1)N1CCCC1 (stereo unspecified) | – | > 100 µM | – | 31.9 µM | – | > 100 µM | – | 39.2 µM | – | > 100 µM | – | > 100 µM | – | 29.8 µM | – | > 100 µM
11 | CCN(CC)c1ccc(CNc2cc(C)nc3ccc(OC)cc23)cc1 | 3.11 µM | 10.8 µM | 1.3 µM | 2.72 µM | 2.14 µM | 4.53 µM | 1.37 µM | 4.34 µM | 1.7 µM | 3.53 µM | 1.86 µM | 3.38 µM | 6.17 µM | 18.6 µM | 0.955 µM | 3.59 µM
12 | COC1=CC(=O)c2c(O)c3c(c(O)c2C1=O)OC1(Oc2c(cc4cc(C)oc(=O)c4c2O)CC1O)C3O (stereo unspecified) | – | > 100 µM | – | 95 µM | – | > 100 µM | – | > 100 µM | – | > 100 µM | – | > 100 µM | – | > 100 µM | – | > 100 µM
13 | Cc1ccccc1NC(=O)N/C(N)=N/c1nc(C)c(C)s1 | 0.0647 µM | > 100 µM | 0.282 µM | > 100 µM | > 100 µM | > 100 µM | 0.0429 µM | > 100 µM | 0.142 µM | > 100 µM | 23.7 µM | > 100 µM | 0.481 µM | > 100 µM | 0.104 µM | > 33 µM
14 | COc1ccccc1CN=C1NC(=O)/C(=C/c2ccc3ncccc3c2)S1 | 4.55 µM | > 25 µM | 12.4 µM | > 21.5 µM | > 25 µM | > 25 µM | 8.4 µM | > 25 µM | 5.4 µM | > 25 µM | > 15.3 µM | > 25 µM | 11 µM | > 25 µM | 8.45 µM | > 25 µM
15 | Oc1ccccc1/C=N/Nc1nc2ccccc2s1 | 2.17 µM | > 100 µM | 7.36 µM | > 100 µM | 8.87 µM | > 100 µM | 6.48 µM | > 100 µM | 1.16 µM | > 100 µM | 89 µM | > 100 µM | 9.35 µM | > 100 µM | 21.1 µM | > 100 µM
16 | C=C(C)[C@@H]1CC[C@]2(C(=O)N3CCN(C)CC3)CC[C@]3(C)[C@H](CC[C@@H]4[C@@]5(C)C/C(=C/c6ccncc6)[C@H](O)C(C)(C)[C@@H]5CC[C@]43C)[C@@H]12 | 2.65 µM | 12.2 µM | 5.98 µM | 18.5 µM | 5.45 µM | 27.8 µM | 2.79 µM | – | 3.29 µM | 13.8 µM | 7.46 µM | 22.2 µM | 9.53 µM | 24 µM | 1.88 µM | 11.2 µM
17 | COc1ccc(-c2c(-c3cc4c(c(OC)c3OC)OCO4)noc2N)cc1 | 0.391 µM | > 100 µM | 0.311 µM | > 69.4 µM | 0.458 µM | > 100 µM | 0.0688 µM | > 100 µM | 0.282 µM | > 77.5 µM | 0.459 µM | > 100 µM | 0.502 µM | > 100 µM | 0.279 µM | 3.15 µM
